Data reported in US20050003000A1, “Method for the formation of ibuprofen crystals” (priority 2001, published 2005).

Test: Powder dissolution / in vitro release rate of the pure active compound, phosphate buffer pH 7.4 USP XXIV, paddle process 100 rpm
Assay type: physicochemical
Settings: for Amount released [%] after 2 min: Table 3, ibuprofen crystallized by displacement precipitation; for Rate of dissolution (in words) / Active compound dissolved after 5 min / Active compound dissolved after 8 min: 3 l scale crystallizate
Experimental: The measurements of the release rate was carried out according to USP XXIV.
• 1. 80 g of ibuprofen are dissolved in 100 ml of isopropanol at 40° C. Precipitation is then carried out by addition of ice water (450 ml/stirrer speed 50 rpm) during the course of 70 min. During this process cooling to 10° C. takes place. The crystals are recovered by filtration and dried in vacuo. […] 3.2 g of sucrose monolaurate are added as an additive. Precipitation is then carried out by addition of ice water (450 ml/stirrer speed 200 rpm) during the course of 70 min. During this process cooling to 10° C. takes place. The crystals are recovered by filtration, washed with ice water (3×50 ml) and dried in vacuo. […] 8 g of Tween®80 are added as an additive. Precipitation is then carried out by addition of ice water (450 ml/stirrer speed 200 rpm) during the course of 70 min. During this process cooling to 10° C. takes place. The crystals are recovered by filtration, washed with ice water (3×50 ml) and dried in vacuo. […] 80 g of ibuprofen are dissolved in 100 ml of isopropanol at 40° C. 3 g of sucrose monolaurate are added as an additive. Precipitation is then carried out by addition of ice water (450 ml/stirrer speed 200 rpm) during the course of 70 min; during this process, cooling to 10° C. takes place; the crystals are recovered by filtration, washed with ice water (3×150 ml) and dried in vacuo.

[1] = Table 1, ibuprofen powder, time 0 min
[2] = Table 1, ibuprofen powder, time 2 min
[3] = Table 1, ibuprofen powder, time 5 min
[4] = Table 1, ibuprofen powder, time 8 min
[5] = Table 1, ibuprofen powder, time 10 min
[6] = Table 1, ibuprofen powder, time 15 min
[7] = Table 1, ibuprofen powder, time 20 min
[8] = Table 2, ibuprofen powder, time 0
[9] = Table 2, ibuprofen powder, time 2
[10] = Table 2, ibuprofen powder, time 5
[11] = Table 2, ibuprofen powder, time 8
[12] = Table 2, ibuprofen powder, time 10
[13] = Table 2, ibuprofen powder, time 15
[14] = Table 2, ibuprofen powder, time 20
[15] = powder dissolution, pure active compound, phosphate buffer pH 7.4 USP XXIV

With `CC(C)Cc1ccc(C(C)C(=O)O)cc1` (stereo not drawn) [Additive: sucrose monolaurate, ibuprofen] the “Amount released [%]” value [1] was 0.0%, the “Amount released [%]” value [2] was 85.2% and the “Amount released [%]” value [3] was 98.8%. For the same compound, the “Amount released [%]” value [4] was 100.0%, the “Amount released [%]” value [5] was 100.0% and the “Amount released [%]” value [6] was 100.0%. The “Amount released [%]” value [7] was 100.0%, the “Amount released [%]” value [8] was 0.0% and the “Amount released [%]” value [9] was 85.9%. The “Amount released [%]” value [10] was 98.4%, the “Amount released [%]” value [11] was 99.5% and the “Amount released [%]” value [12] was 99.9%. The “Amount released [%]” value [13] was 100.7%, the “Amount released [%]” value [14] was 100.6% and the “Amount released [%] after 2 min” value was 85.2%.
For `CC(C)Cc1ccc(C(C)C(=O)O)cc1` (stereo not drawn) [Commercial article, ibuprofen], the “Amount released [%]” value [1] was 0.0%, the “Amount released [%]” value [2] was 15.1% and the “Amount released [%]” value [3] was 36.9%. The “Amount released [%]” value [4] was 59.5%, the “Amount released [%]” value [5] was 73.9% and the “Amount released [%]” value [6] was 98.0%. The “Amount released [%]” value [7] was 99.0%, the “Amount released [%]” value [8] was 0.0% and the “Amount released [%]” value [9] was 15.1%. The “Amount released [%]” value [10] was 36.9%, the “Amount released [%]” value [11] was 59.5% and the “Amount released [%]” value [12] was 73.9%. For the same compound, the “Amount released [%]” value [13] was 98.0%, the “Amount released [%]” value [14] was 99.0% and the “Amount released [%] after 2 min” value was 15.1%. For the same compound, the “Time after which a 100% release / dissolution is seen” value [15] was over 15 min and the “Release / dissolution within (after) 2 minutes” value (“Release / dissolution within” below) [15] was under 20%.
With `CC(C)Cc1ccc(C(C)C(=O)O)cc1` (stereo not drawn) [Example 1, ibuprofen] the “Time after which a 100% release / dissolution is seen” value [15] was 15 min.
With `COc1ccc2cc([C@H](C)C(=O)O)ccc2c1` [Example 2, naproxen] the “Time after which a 100% release is seen” value [15] was 15 s.
With `CC(C)Cc1ccc(C(C)C(=O)O)cc1` (stereo not drawn) [Example 4, ibuprofen] the “Time after which a 100% release / dissolution is seen” value [15] was 5 min and the “Release / dissolution within” value [15] was 85%.
In the case of `CC(C)Cc1ccc(C(C)C(=O)O)cc1` (stereo not drawn) [Example 5, ibuprofen], the “Time after which a 100% release / dissolution is seen” value [15] was 5 min and the “Release / dissolution within” value [15] was 85%.
In the case of `CC(C)Cc1ccc(C(C)C(=O)O)cc1` (stereo not drawn) [Example 6, ibuprofen], the “Time after which a 100% release / dissolution is seen” value [15] was 5 min and the “Release / dissolution within” value [15] was 85%.
In the case of `CC(C)Cc1ccc(C(C)C(=O)O)cc1` (stereo not drawn) [Example 7, ibuprofen], the “Time after which a 100% release / dissolution is seen” value [15] was 5 min and the “Release / dissolution within” value [15] was 85%.
With `CC(C)Cc1ccc(C(C)C(=O)O)cc1` (stereo not drawn) [Example 11, ibuprofen] the “Rate of dissolution (in words)” value was “comparatively good rate of dissolution”, the “Active compound dissolved after 5 min” value was 81% and the “Active compound dissolved after 8 min” value was 90%.
In the case of `CC(C)Cc1ccc(C(C)C(=O)O)cc1` (stereo not drawn) [Example 12, ibuprofen], the “Rate of dissolution (in words)” value was “good rate of dissolution”, the “Active compound dissolved after 5 min” value was 87% and the “Active compound dissolved after 8 min” value was 95%.
For `CC(C)Cc1ccc(C(C)C(=O)O)cc1` (stereo not drawn) [Example 13, ibuprofen], the “Rate of dissolution (in words)” value was “good rate of dissolution”, the “Active compound dissolved after 5 min” value was 92% and the “Active compound dissolved after 8 min” value was 100%.
With `CC(C)Cc1ccc(C(C)C(=O)O)cc1` (stereo not drawn) [Example 14, ibuprofen] the “Rate of dissolution (in words)” value was “good rate of dissolution”.
In the case of `CC(C)Cc1ccc(C(C)C(=O)O)cc1` (stereo not drawn) [Example 15, ibuprofen], the “Rate of dissolution (in words)” value was “good rate of dissolution”.
With `CC(C)Cc1ccc(C(C)C(=O)O)cc1` (stereo not drawn) [Example 18, ibuprofen] the “Time after which a 100% release / dissolution is seen” value [15] was “approximately 5 min”.
In the case of `CC(C)Cc1ccc(C(C)C(=O)O)cc1` (stereo not drawn) [Solvent change without addition, ibuprofen], the “Amount released [%]” value [1] was 0.0%, the “Amount released [%]” value [2] was 20.9% and the “Amount released [%]” value [3] was 48.9%. The “Amount released [%]” value [4] was 67.2%, the “Amount released [%]” value [5] was 76.5% and the “Amount released [%]” value [6] was 94.3%. For the same compound, the “Amount released [%]” value [7] was 100.0%.
In the case of `CC(C)Cc1ccc(C(C)C(=O)O)cc1` (stereo not drawn) [Suc. monolaurate + HPC, ibuprofen], the “Amount released [%] after 2 min” value was 100.8%.
For `CC(C)Cc1ccc(C(C)C(=O)O)cc1` (stereo not drawn) [Suc. monolaurate + Klucel ® LF, ibuprofen], the “Amount released [%] after 2 min” value was 98.9%.
With `CC(C)Cc1ccc(C(C)C(=O)O)cc1` (stereo not drawn) [Suc. monolaurate + Kollicoat ® IR, ibuprofen] the “Amount released [%] after 2 min” value was 97.8%.
With `CC(C)Cc1ccc(C(C)C(=O)O)cc1` (stereo not drawn) [Suc. monolaurate + dextran 200, ibuprofen] the “Amount released [%] after 2 min” value was 100.4%.
With `CC(C)Cc1ccc(C(C)C(=O)O)cc1` (stereo not drawn) [Suc. monolaurate + trehalose, ibuprofen] the “Amount released [%] after 2 min” value was 100.1%.
